The source of these data is US20230313181A1, “HISTIDINE-LYSINE POLYMERS AND METHODS FOR DELIVERING MRNA USING THE SAME” (UNIVERSITY OF MARYLAND, BALTIMORE, priority 2019, published 2023).

Bridges are numbered along the chain shown (N, C = ends). Roman numbers before positions name the chains, in order. Where no end group is shown, it is not given here.

Data set [1] in a line: Particle size, polydispersity index (PDI) and zeta potential of polyplexes (Zetasizer). Format: physicochemical. The procedure:
Particle size, polydispersity index (PDI), and zeta potential. The size, PDI, and zeta potential were determined with the Zetasizer (Malvern, Westborough, Mass.) and analyzed with software provided by the instrument manufacturer (Zetasizer software, version 6.2). Using dynamic light scattering at a 90° angle, the size of the particles were reported as the Z-average diameter from the intensity-weighted size distribution. Prior to the measurements, the samples were equilibrated to 25° C. for 2 min. Each measurement had at least ten sub-runs under the automatic mode of the software. The particle size, PDI, and zeta potential data point represent the mean±SD of three measurements. After mixing HK peptides (4 μg) and mRNA (1 μg) in 100 μl of defined media (Opti-MEM, water, or DMEM/8% FBS) for 30 min, 100 μl of additional defined media was added to the polyplex solution (total volume 200 μl) to measure the size and PDI. To determine the zeta potential, 800 μl more of the media was added (total volume 1000 μl), mixed gently, and then added to the disposable zeta cell.
Because different stabilities were observed between the H3K4b and H3K(+H)4b polyplexes, whether the sizes of these polyplexes varied based on the media in which they were prepared was investigated. […] H3K(+H)4b and H3K4b peptides (4 μg) in complex with mRNA (1 μg) were mixed with either Opti-MEM, water, or DMEM/8% FBS […]. After 1 h, the size, PDI, and zeta potential were measured.

Another data set concerns MDA-MB-231 cells. In words: mRNA transfection with HK associated lipid particles (HK polymer + DOTAP liposomes). Format: cell-based. The conditions noted are these: luciferase mRNA. The procedure: FIGS. 8A and 8B. Comparison of mRNA transfection with DOTAP and several HK polymers. To form HK associated lipid particles, the mRNA (1 μg) was initially mixed with the HK polymer (4 μg) for 30 min and then with the DOTAP liposomes (1 μg) for 30 min. HK polyplexes were prepared as described previously. These complexes were then added to the cells for 24 h before the luciferase activity was measured *, P<0.05; **, P<0.01; ***, P<0.001; […].
Transfection with HK associated lipid particles was done similarly as above with few exceptions. In brief, the HK polymer was mixed initially with mRNA at various ratios for 30 min in Opti-MEM. This was followed by adding the DOTAP cationic liposome (1,2-dioleoyl-3-trimethylam-monium-propane; […]; Roche, Basel, CH) for 30 additional min. The Opti-MEM mixture (50 μl) was then added dropwise to the cells.

The conditions of data set [2]: prior studies [34, 35, 45]; cited from earlier work.
Data set [3] can be described thus: Cell viability assay (trypan blue exclusion). Type of data set: cell-based. The conditions noted are these: human, MDA-MB-231 cells, HK polymer 4 μg or polyplex (4 μg HK; 1 μg mRNA), then 19 h DMEM/10% FBS. The procedure:
Cell Viability Assay. MDA-MB-231 cells were seeded at 5.0×10^4/well in a 24-tissue culture plate and incubated overnight in DMEM supplemented with 10% FBS serum. The media was then changed to Opti-MEM and the cells were treated with either the HK polymer (4 μg) or the HK polyplex (4 μg HK; 1 μg mRNA) for 5 h. After the media was changed to DMEM/10% FBS for 19 h, the cell viability was measured using the trypan blue cell exclusion assay (Trypan Blue solution, 0.4%, Sigma-Aldrich, St. Louis, MO).
After the medium was changed to Opti-MEM in cell cultures of the MDA-MB-231 cells used in the experiment described above, either the HK polymer (4 μg) or the HK polyplex (4 μg HK; 1 μg mRNA) was added dropwise to the cells and incubated for 5 h. The media was then changed to DMEM/10% FBS for 19 h and cell viability was determined using the trypan cell exclusion assay.

The next data set deals with mRNA. The experiment in a line: Heparin displacement assays (gel electrophoresis and Sybr Gold dye intercalation). Type of data set: physicochemical. The conditions noted are these: HK:mRNA 4:1 wt/wt. How it is done: FIG. 4. Heparin Displacement Assays. After HK polyplexes were formed (wt:wt; HK:mRNA; 4 μg:1 μg), different concentrations of heparin […] were incubated with these for 30 min. A. Gel Retardation. The HK polyplexes were loaded on the agarose gel (1%), and electrophoresis was carried out and stained with Sybr Gold. B. Fluorescent dye intercalation. After the HK polyplexes were formed and incubated with several concentrations of heparin, the Sybr Gold nucleic acid dye was incubated with the HK polyplexes for 5 mins. Fluorescence was then measured by a microplate fluorimeter (λex=497 nm, λem=520 nm) (SynergyMx, BioTek). *, P<0.05; ***, P<0.001; H3K4b or H2K vs. H3K(+H)4b.
Heparin Displacement Assays. Heparin displacement assays of HK polyplexes were done with the dye intercalation assay and with gel electrophoresis. A fluorescent assay assessed polyplexes of HK polymer and mRNA (4:1 wt/wt ratio; polymer:mRNA) formed in RNAse/DNAase free water (Corning, Manassas, VA). HK polyplexes were prepared as described previously, followed by the addition of diluted Syber Gold. For detection, working dilutions of the polyplexes (1/5 of volume), water (3/5) and Sybr Gold dye (1/5, 0.2×) were incubated for 5 minutes, and fluorescence was measured by a fluorimeter (Ex=497 nm, Em=520 nm) (SynergyMx, BioTek, Winooski, VT). The control sample was prepared with the same amount of mRNA, water, and Sybr Gold dye. For the heparin displacement, instead of water, heparin salt (Sigma-Aldrich, St. Louis, MO) solutions at different concentrations (0.5, 1, 1.5, 2, 3 μg/μl) were used, and the HK polyplexes were incubated at 37° C. for 30 min before addition of Sybr Gold.
Displacement of mRNA from HK polyplexes with heparin was also done with gel electrophoresis. After HK polyplexes were formed, different concentrations of heparin (0.5, 1.0, 1.5, 2.0, 3.0 μg/μl; volume 20 μl) were incubated with these at 37° C. for 30 min. The polyplexes were then loaded on the agarose gel (1%; 10× BlueJuice Gel loading buffer), and electrophoresis was carried out and stained with SG as described above. […]

Where [4] appears, read: polyplex HK 4 μg:mRNA 1 μg in DMEM/8% FBS.
Setting [5] is: polyplex HK 4 μg:mRNA 1 μg in Opti-MEM.
Where [6] appears, read: polyplex HK 4 μg:mRNA 1 μg in Water.

For orientation: viability means a read-out of living cells in per cent, often relative to untreated cells. Higher therefore signals better survival. “I: KHHHKHHHKHHHHKHHHKKKK-NH2 / II: KHHHKHHHKHHHHKHHHK / III: KHHHKHHHKHHHHKHHHK / IV: KHHHKHHHKHHHHKHHHK (amide I:19-IV:C, I:20-III:C, I:21-II:C) [H3K(+H)4b]”: in data set [1] (setting [4]), the PDI is listed as 0.307, the Size is listed as 289 ± 38.2 nm and the “Zeta Potential” value is reported as −12.7 ± 1.04 mV. For the same substance, in data set [1] (setting [5]), the PDI is reported as 0.362, the Size is listed as 1004 ± 61.1 nm and the “Zeta Potential” value was 2.92 ± 1.83 mV. In data set [1] (setting [6]), the PDI was 0.212, the Size came to 234.9 ± 2.7 nm and the “Zeta Potential” value was determined as 20.77 ± 1.12 mV. The “mRNA transfection compared with DOTAP liposomes (in words)” value with MDA-MB-231 cells is given as “significantly better carriers of mRNA than the DOTAP liposomes”. Further, the “carrier of siRNA (in words)” value in data set [2] is “effective carriers of siRNA”. The same substance came in with a viability at 5 h in data set [3] of 96.3%. Also, in the data set on mRNA, the “binding/release of mRNA and polyplex stability on exposure to heparin (in words)” value is “binds more tightly to the mRNA”.
